Reference: patent publication US20200237909A1, “METHODS OF TREATING OR PREVENTING BREAST CANCER METASTASES USING ANTIBODIES TO JAGGED1 AND CHEMOTHERAPEUTIC AGENTS” (The Trustees of Princeton University, priority 2017, published 2020)

How the values were obtained:
SCP28 [1] = test: Cleaved PARP and cleaved caspase-3 immunoblotting after cisplatin; format: cell-based, human; conditions: SCP28 single-cultured cells, 72 hours post-treatment
Protocol: (§1) FIG. 7. Pro-survival effect of osteoblast Jagged1 on cancer cells can be blocked by 15D11. (A) 3-D tumorsphere culture of MCF7, SCP28, and SUM1315-M1B1 cells, alone or in co-cultured with osteoblast cells, were treated with indicated concentrations of cisplatin or docetaxel. Two days after the chemotherapy, the surviving tumor spheres were counted under the fluorescent microscope. n=3. *p<0.05 by Student's t-test. (B) Cell culture of SCP28 cells alone or in co-culture with MC3T3-E1 pre-osteoblast cells were treated with PBS control or cisplatin. Protein samples were collected at 6 hr, 24 hr, and 72 hr later. Cleaved PARP and cleaved caspase-3 were determined by immunoblotting. # marks full length PARP and * marks cleaved PARP. […] Hind limb bones were fixed and cryo-sectioned for IF staining against CC3 for apoptotic cells and GFP for tumor cells (E), and CC3 positive apoptotic cells among GFP-positive tumor cells were quantified in F. Size bar: 25 μm. n=5. **p<0.01 by Student's t-test. […] Tumor cells in the bone were quantified based on BLI imaging at Day 1 and Day 4. […]
To mimic chemoresistance and tumor seeding effects by osteoblast lineage cells in vitro, an in vitro 3D tumor-stroma co-culture assay (Wang et al., 2015) was adapted. […] Cleaved PARP and cleaved caspase-3 (CC3) status were analyzed by immuno-blotting at different time points after cisplatin treatment. […]

SUM1315-M1B1 cells = test: SUM1315-M1B1 bone metastasis model; format: in vivo, athymic nude mice; conditions: Week 4
Excerpt: FIG. 9. 15D11 synergizes with chemotherapy to inhibit bone metastasis in the SUM1315-M1B1 model. (A) Western blot analysis of Jagged1 protein expression level in SUM1315-M1B1, SPC2, SCP28-Vector, and SCP28-Jagged1 cells. β-actin was used as loading control. (B) Schematic representation of the experimental procedure. In brief, SUM1315-M1B1 cells were IC injected into 4-6 weeks female athymic nude mice to generate bone metastases. One week later, mice were randomized into four groups and treated with respective therapeutic agents. Bone metastasis progression was monitored by weekly BLI imaging until the experimental endpoint (4 weeks after injection). (C) Representative BLI and X-ray images of mice in Week 4 right before euthanizing the mice. (D) Quantification of bone metastasis burden each week based on BLI imaging from the experiment. […] (E) Representative H&E staining and TRAP staining images of hind limb bones from experiment in A were shown. Scale bar: 100 μm. […] AU: arbitrary unit. n=10, **p<0.01 by Student's t-test. (G) Quantification of the number of TRAP-positive osteoclasts per field. n=5, **p<0.01 by Student's t-test.
To validate whether the observed synergy of combined treatment can also be observed in other models of bone metastasis beyond the MDA-MB-231 series, the bone metastatic SUM1315-M1B1 cell line was used. […]

SCP28 [2] = test: CC3 immunofluorescent staining of GFP-positive tumor cells in mouse bone sections; format: in vivo, mice; conditions: after two rounds of treatment
Protocol: as §1
Hindlimb bones were excised from mice at the end point of each experiment, immediately after the last BLI time point. […] For quantitative analysis of lesion area, a 10× objective was used to focus on the tumor region of interest and images were acquired using the AxioCamICc3 camera set to an exposure of around 100 ms. […]

N.N.[Cl][Pt][Cl] [cisplatin]
cleaved PARP and CC3 (SCP28 [1]): strong induction

CC(=O)O[C@H]1C(=O)[C@@]2(C)[C@H]([C@H](OC(=O)c3ccccc3)[C@]3(O)C[C@H](OC(=O)[C@H](O)[C@@H](NC(=O)c4ccccc4)c4ccccc4)C(C)=C1C3(C)C)[C@]1(OC(C)=O)CO[C@@H]1C[C@@H]2O [paclitaxel]
bone metastasis burden (BLI signal) (SUM1315-M1B1 cells): minor reduction of BLI signal | CC3 positive tumor cells (SCP28 [2]): substantial numbers of tumor cells
